In patent publication US12065433B2, “Positive allosteric modulators of the muscarinic acetylcholine receptor M1” (Vanderbilt University, priority 2018, dated 2024):

Target: T1, human mAChR M1 (Homo sapiens, UniProt P11229)
T1 sequence (P11229 1-460): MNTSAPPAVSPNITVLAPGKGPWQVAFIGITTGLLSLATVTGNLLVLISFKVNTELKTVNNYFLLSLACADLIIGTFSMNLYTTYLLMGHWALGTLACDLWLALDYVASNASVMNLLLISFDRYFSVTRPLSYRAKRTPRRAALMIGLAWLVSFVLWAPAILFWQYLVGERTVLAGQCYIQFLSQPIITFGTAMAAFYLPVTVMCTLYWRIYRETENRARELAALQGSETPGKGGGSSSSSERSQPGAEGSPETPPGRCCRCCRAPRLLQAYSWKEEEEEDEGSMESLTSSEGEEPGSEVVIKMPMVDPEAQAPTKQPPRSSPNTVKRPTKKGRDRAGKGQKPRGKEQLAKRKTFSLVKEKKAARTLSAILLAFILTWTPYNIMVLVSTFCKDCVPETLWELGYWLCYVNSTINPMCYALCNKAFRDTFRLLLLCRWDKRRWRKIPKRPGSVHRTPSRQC
Assay: mAChR M1 cell-based functional assay (calcium mobilization, PAM mode)
Details: CHO-K1 cells stably expressing hM1, calcium flux (Fluo-4); for EC50: concentration-dependent increase in the EC20 acetylcholine response; for Emax: potentiation of EC20 acetylcholine response
Text: Chinese hamster ovary (CHO-K1) cells stably expressing rat (r)M1 were purchased from the American Type Culture Collection and cultured according to their indicated protocol. CHO cells stably expressing human (h)M2, hM3, and hM5 were described previously (Levey, et al., 1991); hM1 and hM4 cDNAs were purchased from Missouri S&T cDNA Resource; rM4 cDNA was provided by T. I. Bonner (National Institutes of Health, Bethesda, MD). rM2 and rM3 were cloned from a rat brain cDNA library and sequence verified. hM1, rM2, rM3, hM4, and rM4 cDNAs were used to stably transfect CHO-K1 cells purchased from the American Type Culture Collection using Lipofectamine2000. To make stable rM2, hM2, rM3, hM4, and rM4 cell lines for use in calcium mobilization assays, these cells also were stably transfected with a chimeric G-protein (Gqi5) (provided by B. R. Conklin, University of California, San Francisco) using Lipofectamine 2000. rM1, hM1, rM3, hM3, rM5, and hM5 cells were grown in Ham's F-12 medium containing 10% heat-inactivated fetal bovine serum (FBS), 20 mM HEPES, and 50 μg/mL G418 sulfate. rM2-Gqi5, hM2-Gqi5, and hM4-Gqi5 cells were grown in the same medium also containing 500 μg/mL Hygromycin B. Stable rM4-Gqi5 cells were grown in DMEM containing 10% heat-inactivated FBS, 20 mM HEPES, 400 μg/mL G418 sulfate, and 500 μg/mL Hygromycin B.
For high throughput measurement of agonist-evoked increases in intracellular calcium, CHO-K1 cells stably expressing muscarinic receptors were plated in growth medium lacking G418 and hygromycin at 15,000 cells/20 μL/well in Greiner 384-well black-walled, tissue culture (TC)-treated, clear-bottom plates (VWR). Cells were incubated overnight at 37° C. and 5% CO2. The next day, cells were washed using an ELX 405 (BioTek) with four washes (80 μL) of assay buffer then aspirated to 20 μL. Next, 20 μL of 16 μM Fluo-4/acetoxymethyl ester (Invitrogen, Carlsbad, CA) prepared as a 2.3 mM stock in DMSO and mixed in a 1:1 ratio with 10% (w/v) Pluronic F-127 and diluted in assay buffer was added to the wells and the cell plates were incubated for 50 min at 37° C. and 5% CO2. Dye was removed by washing with the ELX 405 (four […], washes of assay buffer) then aspirated to 20 μL. Compound master plates were formatted in an 11 point CRC format (1:3 dilutions) in 100% DMSO with a starting concentration of 10 mM using the BRAVO liquid handler (Agilent). Test compound CRCs were then transferred to daughter plates (240 nL) using the Echo acoustic plate reformatter (Labcyte, Sunnyvale, CA) and then diluted into assay buffer (40 μL) to a 2× stock using a Thermo Fisher Combi (Thermo Fisher Scientific, Waltham, MA).
Calcium flux was measured using the Functional Drug Screening System (FDSS) 6000 (Hamamatsu Corporation, Tokyo, Japan) as an increase in the fluorescent static ratio. Compounds were applied to cells (20 μL, 2×) using the automated system of the FDSS 6000 at 4 s into the 300 s protocol and the data were collected at 1 Hz. At 144 s into the 300 s protocol, 10 μL of an EC20 concentration of the muscarinic receptor agonist acetylcholine was added (5×), followed by the addition of 12 μL an EC80 concentration of acetylcholine at the 230 s time point (5×). Agonist activity was analyzed as a concentration-dependent increase in calcium mobilization upon compound addition. Emax values for agonist activity are expressed relative to the maximum for acetylcholine. Positive allosteric modulator activity was analyzed as a concentration-dependent increase in the EC20 acetylcholine response. Antagonist activity was analyzed as a concentration-dependent decrease in the EC80 acetylcholine response. Concentration-response curves were generated using a four-parameter logistical equation in XLfit curve fitting software (IDBS, Bridgewater, NJ) for Excel (Microsoft, Redmond, WA) or Prism (GraphPad Software, Inc., San Diego, CA). […]

SMILES	EC50 [µM]	Emax [%]
O=C(N[C@H]1CCOC[C@@H]1O)c1cc(Cc2ccc(-n3cccn3)cc2)cc2c1OCO2 [Compound 1, N-[(3R,4S)-3-hydroxytetrahydropyran-4-yl]-6-[(4-pyrazol-1-ylphenyl)methyl]-1,3-benzodioxole-4-carboxamide]	0.92	81
O=C(N[C@H]1CCCC[C@@H]1O)c1cc(Cc2ccc(-n3cccn3)cc2)cc2c1OCO2 [Compound 2, N-[(1S,2S)-2-hydroxycyclohexyl]-6-[(4-pyrazol-1-ylphenyl)methyl]-1,3-benzodioxole-4-carboxamide]	0.79	82
O=C(NC1CC2(COC2)C1)c1cc(Cc2ccc(-n3cccn3)cc2)cc2c1OCO2 [Compound 3, N-(2-oxaspiro[3.3]heptan-6-yl)-6-[(4-pyrazol-1-ylphenyl)methyl]-1,3-benzodioxole-4-carboxamide]	–	59
O=C(N[C@H]1CCC[C@@H]1O)c1cc(Cc2ccc(-n3cccn3)cc2)cc2c1OCO2 [Compound 4, N-[(1S,2S)-2-hydroxycyclopentyl]-6-[(4-pyrazol-1-ylphenyl)methyl]-1,3-benzodioxole-4-carboxamide]	2.48	69
O=C(N[C@H]1CC[C@@H]1O)c1cc(Cc2ccc(-n3cccn3)cc2)cc2c1OCO2 [Compound 5, N-[(1S,2S)-2-hydroxycyclobutyl]-6-[(4-pyrazol-1-ylphenyl)methyl]-1,3-benzodioxole-4-carboxamide]	3.67	55
O=C(N[C@H]1CCCCC[C@@H]1O)c1cc(Cc2ccc(-n3cccn3)cc2)cc2c1OCO2 [Compound 6, N-[(1S,2S)-2-hydroxycycloheptyl]-6-[(4-pyrazol-1-ylphenyl)methyl]-1,3-benzodioxole-4-carboxamide]	1.04	76
CC(C)(O)CNC(=O)c1cc(Cc2ccc(-n3cccn3)cc2)cc2c1OCO2 [Compound 7, N-(2-hydroxy-2-methyl-propyl)-6-[(4-pyrazol-1-ylphenyl)methyl]-1,3-benzodioxole-4-carboxamide]	–	61
CC1(C)COCCC1NC(=O)c1cc(Cc2ccc(-n3cccn3)cc2)cc2c1OCO2 (stereo not shown) [Compound 8, N-(3,3-dimethyltetrahydropyran-4-yl)-6-[(4-pyrazol-1-ylphenyl)methyl]-1,3-benzodioxole-4-carboxamide]	7.33	67
Cn1ccc(-c2ccc(Cc3cc4c(c(C(=O)N[C@H]5CCOC[C@@H]5O)c3)OCO4)cn2)n1 [Compound 9, N-[(3R,4S)-3-hydroxytetrahydropyran-4-yl]-6-[[6-(1-methylpyrazol-3-yl)-3-pyridyl]methyl]-1,3-benzodioxole-4-carboxamide]	1.42	75
Cn1ccc(-c2ccc(Cc3cc4c(c(C(=O)N[C@H]5CCCCC[C@@H]5O)c3)OCO4)cn2)n1 [Compound 10, N-[(1S,2S)-2-hydroxycycloheptyl]-6-[[6-(1-methylpyrazol-3-yl)-3-pyridyl]methyl]-1,3-benzodioxole-4-carboxamide]	1.19	74
Cn1ccc(-c2ccc(Cc3cc4c(c(C(=O)N[C@H]5CCCC[C@@H]5O)c3)OCO4)cn2)n1 [Compound 11, N-[(1S,2S)-2-hydroxycyclohexyl]-6-[[6-(1-methylpyrazol-3-yl)-3-pyridyl]methyl]-1,3-benzodioxole-4-carboxamide]	0.81	76
Cn1ccc(-c2ccc(Cc3cc4c(c(C(=O)N[C@H]5CCC[C@@H]5O)c3)OCO4)cn2)n1 [Compound 12, N-[(1S,2S)-2-hydroxycyclopentyl]-6-[[6-(1-methylpyrazol-3-yl)-3-pyridyl]methyl]-1,3-benzodioxole-4-carboxamide]	6.44	74
Cn1ccc(-c2ccc(Cc3cc4c(c(C(=O)N[C@H]5CC[C@@H]5O)c3)OCO4)cn2)n1 [Compound 13, N-[(1S,2S)-2-hydroxycyclobutyl]-6-[[6-(1-methylpyrazol-3-yl)-3-pyridyl]methyl]-1,3-benzodioxole-4-carboxamide]	–	65
Cn1ccc(-c2ccc(Cc3cc4c(c(C(=O)NC5CC6(COC6)C5)c3)OCO4)cn2)n1 [Compound 14, 6-[[6-(1-methylpyrazol-3-yl)-3-pyridyl]methyl]-N-(2-oxaspiro[3.3]heptan-6-yl)-1,3-benzodioxole-4-carboxamide]	–	57
Cn1ccc(-c2ccc(Cc3cc4c(c(C(=O)NC5CCOCC5)c3)OCO4)cn2)n1 [Compound 15, 6-[[6-(1-methylpyrazol-3-yl)-3-pyridyl]methyl]-N-tetrahydropyran-4-yl-1,3-benzodioxole-4-carboxamide]	–	49
Cc1nc(-c2ccc(Cc3cc4c(c(C(=O)N[C@H]5CCOC[C@@H]5O)c3)OCO4)cc2)co1 [Compound 16, N-[(3R,4S)-3-hydroxytetrahydropyran-4-yl]-6-[[4-(2-methyloxazol-4-yl)phenyl]methyl]-1,3-benzodioxole-4-carboxamide]	1.81	78
Cc1nc(-c2ccc(Cc3cc4c(c(C(=O)N[C@H]5CCCC[C@@H]5O)c3)OCO4)cc2)co1 [Compound 17, N-[(1S,2S)-2-hydroxycyclohexyl]-6-[[4-(2-methyloxazol-4-yl)phenyl]methyl]-1,3-benzodioxole-4-carboxamide]	1.15	66
Cc1c(Cc2ccc(-n3cccn3)cc2)cc(C(=O)N[C@H]2CCOC[C@@H]2O)c2c1OCO2 [Compound 18, N-[(3R,4S)-3-hydroxytetrahydropyran-4-yl]-7-methyl-6-[(4-pyrazol-1-ylphenyl)methyl]-1,3-benzodioxole-4-carboxamide]	0.26	75
Cc1c(Cc2ccc(-n3cccn3)cc2)cc(C(=O)N[C@H]2CCCC[C@@H]2O)c2c1OCO2 [Compound 19, N-[(1S,2S)-2-hydroxycyclohexyl]-7-methyl-6-[(4-pyrazol-1-ylphenyl)methyl]-1,3-benzodioxole-4-carboxamide]	0.42	78
Cc1c(Cc2ccc(-c3ccn(C)n3)cc2)cc(C(=O)N[C@H]2CCOC[C@@H]2O)c2c1OCO2 [Compound 20, N-[(3R,4S)-3-hydroxytetrahydropyran-4-yl]-7-methyl-6-[[4-(1-methylpyrazol-3-yl)phenyl]methyl]-1,3-benzodioxole-4-carboxamide]	0.33	88
Cc1c(Cc2ccc(-c3ccn(C)n3)cc2)cc(C(=O)N[C@H]2CCCC[C@@H]2O)c2c1OCO2 [Compound 21, N-[(1S,2S)-2-hydroxycyclohexyl]-7-methyl-6-[[4-(1-methylpyrazol-3-yl)phenyl]methyl]-1,3-benzodioxole-4-carboxamide]	0.41	80
